A compilation of properties of binary mixtures (doi:10.1021/je990135o)

Experiment: excess molar enthalpy (molar enthalpy of mixing); xn = mol fraction of the nth substance listed
Conditions: 100 kPa

CCCCOCCOCCO + CCOC(=O)OCC
Conditions | excess molar enthalpy [kcal/mol]
298.15 K, x2 = 0.0553 | 0.0217
298.15 K, x2 = 0.1047 | 0.0433
298.15 K, x2 = 0.1493 | 0.06
298.15 K, x2 = 0.1896 | 0.0793
298.15 K, x2 = 0.2598 | 0.106
298.15 K, x2 = 0.3188 | 0.125
298.15 K, x2 = 0.4125 | 0.151
298.15 K, x2 = 0.4834 | 0.165
298.15 K, x2 = 0.584 | 0.176
298.15 K, x2 = 0.6781 | 0.175
298.15 K, x2 = 0.8081 | 0.15
298.15 K, x2 = 0.8488 | 0.131
298.15 K, x2 = 0.8939 | 0.104
298.15 K, x2 = 0.9182 | 0.0884
298.15 K, x2 = 0.944 | 0.0641
298.15 K, x2 = 0.9712 | 0.0356
313.15 K, x2 = 0.1043 | 0.0521
313.15 K, x2 = 0.1488 | 0.0743
313.15 K, x2 = 0.3179 | 0.149
313.15 K, x2 = 0.4114 | 0.175
313.15 K, x2 = 0.4823 | 0.193
313.15 K, x2 = 0.583 | 0.205
313.15 K, x2 = 0.6772 | 0.204
313.15 K, x2 = 0.7366 | 0.193
313.15 K, x2 = 0.8075 | 0.171
313.15 K, x2 = 0.8935 | 0.12
313.15 K, x2 = 0.9179 | 0.0973
313.15 K, x2 = 0.9438 | 0.0715
313.15 K, x2 = 0.9711 | 0.0392

CCCCOCCO + CCOC(=O)OCC
298.15 K
Conditions | excess molar enthalpy [kcal/mol]
x2 = 0.043 | 0.0402
x2 = 0.0431 | 0.038
x2 = 0.0824 | 0.076
x2 = 0.0827 | 0.0707
x2 = 0.1188 | 0.107
x2 = 0.1191 | 0.098
x2 = 0.2123 | 0.177
x2 = 0.2129 | 0.163
x2 = 0.265 | 0.191
x2 = 0.3503 | 0.254
x2 = 0.351 | 0.229
x2 = 0.4181 | 0.278
x2 = 0.4189 | 0.25
x2 = 0.5196 | 0.268
x2 = 0.6138 | 0.267
x2 = 0.618 | 0.295
x2 = 0.6832 | 0.281
x2 = 0.7639 | 0.245
x2 = 0.7644 | 0.227
x2 = 0.8118 | 0.218
x2 = 0.8123 | 0.202
x2 = 0.8661 | 0.173
x2 = 0.8665 | 0.159
x2 = 0.8961 | 0.142
x2 = 0.8964 | 0.134
x2 = 0.9228 | 0.0593
x2 = 0.9283 | 0.106
x2 = 0.9285 | 0.0994

CCOCCOCCO + CCOC(=O)OCC
Conditions | excess molar enthalpy [kcal/mol]
298.15 K, x2 = 0.1227 | 0.0459
298.15 K, x2 = 0.1571 | 0.0614
298.15 K, x2 = 0.2185 | 0.0837
298.15 K, x2 = 0.2716 | 0.102
298.15 K, x2 = 0.3587 | 0.128
298.15 K, x2 = 0.4271 | 0.146
298.15 K, x2 = 0.528 | 0.163
298.15 K, x2 = 0.6911 | 0.168
298.15 K, x2 = 0.8173 | 0.141
298.15 K, x2 = 0.8995 | 0.0985
298.15 K, x2 = 0.9307 | 0.0748
298.15 K, x2 = 0.9641 | 0.0425
313.15 K, x2 = 0.0443 | 0.0198
313.15 K, x2 = 0.1222 | 0.0574
313.15 K, x2 = 0.1566 | 0.0767
313.15 K, x2 = 0.2313 | 0.109
313.15 K, x2 = 0.2708 | 0.126
313.15 K, x2 = 0.3578 | 0.157
313.15 K, x2 = 0.4261 | 0.175
313.15 K, x2 = 0.527 | 0.197
313.15 K, x2 = 0.6257 | 0.202
313.15 K, x2 = 0.7697 | 0.184
313.15 K, x2 = 0.8167 | 0.167
313.15 K, x2 = 0.8699 | 0.139
313.15 K, x2 = 0.8991 | 0.117
313.15 K, x2 = 0.9304 | 0.0872

COCCO + CCOC(=O)OCC
298.15 K
Conditions | excess molar enthalpy [kcal/mol]
x2 = 0.0263 | 0.0225
x2 = 0.0264 | 0.0191
x2 = 0.0512 | 0.0437
x2 = 0.0514 | 0.0363
x2 = 0.075 | 0.0607
x2 = 0.0975 | 0.0798
x2 = 0.0978 | 0.0672
x2 = 0.1395 | 0.112
x2 = 0.1398 | 0.0973
x2 = 0.1777 | 0.138
x2 = 0.1781 | 0.119
x2 = 0.2454 | 0.153
x2 = 0.3017 | 0.208
x2 = 0.3023 | 0.178
x2 = 0.3933 | 0.246
x2 = 0.3941 | 0.211
x2 = 0.4931 | 0.268
x2 = 0.4939 | 0.23
x2 = 0.5646 | 0.274
x2 = 0.5653 | 0.237
x2 = 0.6605 | 0.265
x2 = 0.6611 | 0.23
x2 = 0.7217 | 0.247
x2 = 0.7223 | 0.218
x2 = 0.796 | 0.188
x2 = 0.8384 | 0.182
x2 = 0.8388 | 0.164
x2 = 0.8861 | 0.142
x2 = 0.8864 | 0.129
x2 = 0.9396 | 0.0841
x2 = 0.9398 | 0.0767

COCCOCCO + CCOC(=O)OCC
Conditions | excess molar enthalpy [kcal/mol]
298.15 K, x2 = 0.0388 | 0.0174
298.15 K, x2 = 0.0748 | 0.0337
298.15 K, x2 = 0.1392 | 0.06
298.15 K, x2 = 0.1952 | 0.0827
298.15 K, x2 = 0.2444 | 0.103
298.15 K, x2 = 0.3267 | 0.126
298.15 K, x2 = 0.3927 | 0.146
298.15 K, x2 = 0.66 | 0.175
298.15 K, x2 = 0.7443 | 0.165
298.15 K, x2 = 0.7951 | 0.151
298.15 K, x2 = 0.8534 | 0.125
298.15 K, x2 = 0.8859 | 0.109
298.15 K, x2 = 0.9209 | 0.0827
298.15 K, x2 = 0.9588 | 0.0471
313.15 K, x2 = 0.0387 | 0.0201
313.15 K, x2 = 0.1077 | 0.0576
313.15 K, x2 = 0.1386 | 0.0739
313.15 K, x2 = 0.1945 | 0.101
313.15 K, x2 = 0.2436 | 0.125
313.15 K, x2 = 0.3257 | 0.157
313.15 K, x2 = 0.3916 | 0.179
313.15 K, x2 = 0.4914 | 0.202
313.15 K, x2 = 0.6589 | 0.215
313.15 K, x2 = 0.7435 | 0.201
313.15 K, x2 = 0.7944 | 0.185
313.15 K, x2 = 0.8529 | 0.156
313.15 K, x2 = 0.8854 | 0.133
313.15 K, x2 = 0.9587 | 0.0583

CCOCCO + CCOC(=O)OCC
Conditions | excess molar enthalpy [kcal/mol]
298.15 K, x2 = 0.0322 | 0.0225
298.15 K, x2 = 0.0624 | 0.0433
298.15 K, x2 = 0.1175 | 0.0801
298.15 K, x2 = 0.1666 | 0.11
298.15 K, x2 = 0.2104 | 0.136
298.15 K, x2 = 0.2855 | 0.171
298.15 K, x2 = 0.4442 | 0.223
298.15 K, x2 = 0.5454 | 0.234
298.15 K, x2 = 0.7057 | 0.221
298.15 K, x2 = 0.8275 | 0.17
298.15 K, x2 = 0.8648 | 0.145
298.15 K, x2 = 0.9056 | 0.111
313.15 K, x2 = 0.0321 | 0.028
313.15 K, x2 = 0.0623 | 0.0531
313.15 K, x2 = 0.0906 | 0.0753
313.15 K, x2 = 0.1173 | 0.0951
313.15 K, x2 = 0.2099 | 0.158
313.15 K, x2 = 0.285 | 0.199
313.15 K, x2 = 0.3469 | 0.226
313.15 K, x2 = 0.4436 | 0.256
313.15 K, x2 = 0.5447 | 0.27
313.15 K, x2 = 0.6146 | 0.271
313.15 K, x2 = 0.7052 | 0.254
313.15 K, x2 = 0.8271 | 0.193
313.15 K, x2 = 0.8645 | 0.165
313.15 K, x2 = 0.9054 | 0.124
313.15 K, x2 = 0.9503 | 0.0717
